Reference: article PMC8229286, “Pharmacokinetics-Driven Evaluation of the Antioxidant Activity of Curcuminoids and Their Major Reduced Metabolites—A Medicinal Chemistry Approach” (Molecules, 2021)
Values after ≈ are worked out from the molar mass of the structure shown. Where two headings read alike, the source gives them in different places.

Tests used:
[1] = Chemical stability in PBS pH 7.4; conditions: between 0–2 h at 37 °C in PBS, Stable = no chemical change detected during the evaluation time (4 h)
Experimental: (§1) Kinetic solubility was tested with 5% (v/v) DMSO as cosolvent in phosphate buffered saline (PBS, 0.01 M phosphate buffer pH 7.4, 0.138 M NaCl, 0.0027 M KCl, without Ca^2+, Mg^2+) at room temperature for 2 h. Chemical stability was tested with 10% (v/v) DMSO as cosolvent in PBS pH 7.4 at 37 °C for 4 h. Metabolic stability was investigated on human liver microsomes (1 mg/mL), which were preincubated with 25 µM test compounds for 5 min at 37 °C in 0.1 M Tris-HCl buffer, pH 7.4 contained 6.67 mM Na-pyrophosphate, 5.56 mM MgCl2, 5.56 mM glucose-6-phosfate, 4.63 U/mL glucose-6-phosphate dehydrogenase. The reaction was initiated by adding preincubated cofactor (37 °C,10 mM NADPH). After 10, 30, and 60 min incubation at 37 °C, the reaction was stopped by adding equal volume of cooled methanol (−20 °C). The samples were centrifuged at 20,000 g for 5 min. The supernatant and all above described test solutions were analyzed by LC-MS/MS. LC-MS analysis was carried out on an Agilent 1200 liquid chromatography system coupled with an 6410 QQQ-MS (Agilent Technologies, Palo Alto, CA, USA). Analysis was on a Cortecs C18 column (150 × 4.6 mm, 2.7 µm, Waters) at 40 °C, with a mobile phase flow rate of 1.45 mL/min. Composition of eluent A was 0.1% (v/v) trifluoroacetic acid (TFA) in water (pH 1.9). A linear gradient of 0–100% B (acetonitrile (AcN) and water in 95:5 (v/v)) was applied at a range of 0–17 min, then 100% B at 17–22 min. The injection volume was set at 20 µL and chromatograms were registered at 220 ± 4 nm. The MSD operating parameters in ESI positive ionization mode were as follows: scan ion mode (100–800 m/z), drying gas temperature 350 °C, nitrogen flow rate 12 L/min, nebulizer pressure 40 psi, quadrupole temperature 100 °C, capillary voltage 4000 V, fragmentor voltage 135 V.

[2] = AAPH assay (oxygen radical absorbance capacity, ORAC); conditions: concentration for 50% antioxidant capacity; average ± S.E.M
Experimental: Antioxidant capacity measurement was carried out on 96-well microplates, based on oxygen radical absorbance capacity (ORAC) assay. A 20 μL aliquot of the sample (6 dilutions with buffer from 10 μg/mL stock solution dissolved in phosphate buffer, containing 1% MeOH), 120 μL of fluorescein (dissolved in phosphate buffer, pH = 7.4, 70 nM final concentration), and 60 μL of 2,2′-azobis(2-methylpropionamidine) dihydrochloride (AAPH, dissolved in phosphate buffer, pH = 7.4, 12 mM final concentration) were pipetted into each well. Each measurement was performed twice in duplicates. Each plate contained six dilutions of trolox as the standard, and phosphate buffer as blank. Flourescence (excitation at 485 nm and emission at 520 nm) was measured over a 3 h period with 1.5-min cycle intervals by a FluoStar Optima plate-reader (BMG Labtech GmbH). The antioxidant capacity was calculated for each concentration with the following formula: antioxidant capacity = (AUCAntioxidant − AUCBlank)/AUCBlank × 100 where AUC is the area under curve obtained for the sample and blank assays. Based on the linear correlation between the concentration of the samples and the antioxidant capacity, IC50 values could be obtained, which define the concentration (in µM) of each compound required to have 50% antioxidant capacity defined by the previous equation.

GI-PAMPA permeability = conditions: for Papp at 4 h, 100 µM: PAMPA, pH 7.4; for GI-PAMPA MR (membrane retention) / GI-PAMPA Pe: PBS pH 7.4, 37 °C, 4 h
Experimental: (§2) BBB and GI permeability was determined by using tissue-specific parallel artificial membrane permeability assay (GI-PAMPA [46], BBB-PAMPA [47]) models. Briefly, a 96-well acceptor plate and a 96-well filter plate were assembled into a sandwich. The hydrophobic filter material of the 96 well filter plate was coated by the mixture of phosphatidylcholine:cholesterol 2:1 (5 µL, 4 % (w/v) in dodecane: GI-PAMPA) or by porcine brain lipid (PBL) (5 µL, 2.6 % (w/v) in dodecane:hexane 25:75 v/v%: BBB-PAMPA). Subsequently, the acceptor wells at the bottom of the sandwich were filled with 300 µL of 10 mM PBS solution with 5% DMSO adjusted to pH 7.4. The donor wells at the top of the sandwich were hydrated with 150 µL of test compound solution. The test compound solutions were prepared in 100 times dilution. Firstly, a 10 mM stock solution was prepared from the corresponding compound in DMSO, then it was diluted with PBS (pH 6.5: GI-PAMPA or pH 7.4: BBB-PAMPA) to get 5% mixture followed by filtration through a MultiScreen Solubility filter plate. The resulting sandwich was then incubated at 37 °C for 4h. After the incubation, PAMPA sandwich plates were separated and compound concentrations in donor and acceptor solutions were investigated by HPLC-DAD. HPLC analyses were performed using a Shimadzu Prominence Modular HPLC system (Shimadzu Corporation, Kyoto, Japan) on a Kinetex® 2.6mm C18 100 Å LC column (30 × 3 mm) at 45 °C. Mobile phase flow rate was 1.1 mL/min using a gradient of AcN and 0.1% (v/v) formic acid in water (from 5% AcN to 95% in 2.5 min). Chromatograms were recorded at the wavelength of 200–500 nm, integration was carried out at the UVmax of each compound. The applied injection volume was 6 μL.

[3] = Experimental logP in octanol-water and toluene-water systems; conditions: for ΔlogPoct_tol: logPo/w − logPtol/w; for logP at 24 h: octanol/water; for logPtol/w: toluene-water, average ± S.E.M, five parallel experiments
Experimental: Lipophilicity measurements of hydrocurcumins were performed by dissolving the compounds in the organic solvents (octanol and toluene) at 1mg/mL concentration and mixing them with water (1:5 and 1:10 ratios, each in five replicates). After 24 h the concentration of the compounds in the aqueous phase were calculated by using a calibration dilution series measured on RP-HPLC system. The concentration of the organic phase was calculated from the concentration of the aqueous phase.

[4] = Metabolic stability in human liver microsomes; conditions: for CLint scaled at 25 µM / half-life at 25 µM: human, human liver microsomes, pH 7.4; for Met.stab. in HLM t1/2: human liver microsomes 1 mg/mL, 25 µM compound, 37 °C, mean ± S.E.M, n = 3; for Met.stab. in HLM Cl'int: intrinsic clearance calculated from in vitro t1/2 data in HLM
Experimental: as §1

BBB-PAMPA permeability = conditions: for Papp at 4 h, 100 µM: PAMPA
Experimental: as §2

[5] = Kinetic solubility in PBS; conditions: for solubility kinetic at 2 h: PBS with 5% (v/v) DMSO, pH 7.4, aqueous with cosolvent or surfactant or cyclodextrin, kinetic from dmso stock; for Kinetic Solubility: after 2 h, at 37 °C in PBS, pH 7.4, mean ± S.E.M, n = 3
Experimental: as §1

[6] = DPPH free radical scavenging assay; conditions: 30 min, absorbance 550 nm; average ± S.E.M
Experimental: The DPPH free radical scavenging assay was performed based on the method of Fukumoto et al. with some modification. The measurement was performed on a 96-well microplate. Microdilution series of the samples (0.2 mg/mL stock solution, dissolved in HPLC grade MeOH) were made starting with 100 μL. To each well 100 μL of DPPH reagent (100 μM in HPLC grade MeOH) was added to gain the final volume of 200 μL. The microplates were kept in dark, and the absorbance was measured after 30 min at 550 nm using a FluoStar Optima plate reader (software version 2.20R2, BMG Labtech, Ortenberg, Germany). Methanol was used as blank. The scavenging activity was calculated as Inhibition (%) = (A0 − As)/A0 × 100, and EC50 values were calculated by Graph Pad Prism (GraphPad Software, Inc., La Jolla, CA, USA).

[7] = set-up: method as in PMID 17999464; conditions: cited from earlier work
[8] = pH 7.4
Experimental: as §2

[9] = microsomes
Experimental: as §1

[10] = pH 7.4; remark: listed apart in the source
Experimental: as §1

Chemical Stability Shelf-Life [1]	IC50 [2]	Papp at 4 h, 100 µM (GI-PAMPA permeability)	GI-PAMPA MR (membrane retention) (GI-PAMPA permeability)	CLint scaled at 25 µM [4]	Papp at 4 h, 100 µM (BBB-PAMPA permeability)	BBB-PAMPA MR (membrane retention) (BBB-PAMPA permeability; PBS pH 6.5→pH 7.4, 37 °C, 4 h)	solubility kinetic at 2 h [5]	IC50 [6]	half-life at 25 µM [4]	GI-PAMPA Pe (GI-PAMPA permeability)	Molecule	other results
Stable ^#	0.39 ± 0.06 µM	0.37 ± 0.02 ×10⁻⁶ cm/s	5.0 ± 0.6 %	3.3 mL/min/kg	1.25 ± 0.01 ×10⁻⁶ cm/s	13.3 ± 0.5 %	74.1 ± 0.3 µM (≈ 27.7 µg/mL)	9.9 ± 0.9 µM	–	–	COc1cc(CCC(=O)CC(O)CCc2ccc(O)c(OC)c2)ccc1O (stereo not shown) [6HC, hexahydrocurcumin]	ΔlogPoct_tol [3]: 0.46; logP at 24 h [3]: 2.15 ± 0.01; logPtol/w [3]: 1.69 ± 0.03
Stable ^#	0.43 ± 0.11 µM	0.24 ± 0.01 ×10⁻⁶ cm/s	4.4 ± 0.2 %	1.4 mL/min/kg	0.97 ± 0.02 ×10⁻⁶ cm/s	8.9 ± 1.4 %	72.9 ± 0.9 µM (≈ 27.4 µg/mL)	11.4 ± 1 µM	3.86 ± 0.56 h	–	COc1cc(CCC(O)CC(O)CCc2ccc(O)c(OC)c2)ccc1O (stereo not shown) [8HC, octahydrocurcumin]	ΔlogPoct_tol [3]: 0.75; logP at 24 h [3]: 2.3 ± 0.02; logPtol/w [3]: 1.55 ± 0.14
Stable ^#	0.49 ± 0.29 µM	–	1.7 ± 0.3 %	0.9 mL/min/kg	0.53 ± 0.07 ×10⁻⁶ cm/s	14.9 ± 1.9 %	68.7 ± 0.7 µM (≈ 23.8 µg/mL)	33.1 ± 0.8 µM	6.08 ± 0.957 h	2.2 ± 0.1 * ·10^−7 cm/s	COc1cc(CCC(O)CC(O)CCc2ccc(O)cc2)ccc1O (stereo not shown) [8HDC, octahydro-demethoxycurcumin]	–
–	2.02 ± 0.13 µM	–	–	–	–	–	–	5.6 ± 0.1 µM	–	–	Cc1c(C)c2c(c(C)c1O)CCC(C)(C(=O)O)O2 (stereo not shown) [Trolox, reference compound]	–
Stable ^#	0.41 ± 0.03 µM	–	12.9 ± 1.6 %	–	–	40.9 ± 1.5 %	–	14.2 ± 0.5 µM	–	20.4 ± 0.3 * ·10^−7 cm/s	tetrahydro-demethoxycurcumin [4HDC]	Met.stab. in HLM t1/2 [4]: 0.0722 ± 0.00033 h; Met.stab. in HLM Cl'int [4]: 72.0 ± 0.4 mL/min/kg; BBB-PAMPA Pe (BBB-PAMPA permeability; PBS pH 6.5→pH 7.4, 37 °C, 4 h): 20.7 ± 0.5 ·10^−7 cm/s; Kinetic Solubility [5]: 69.5 ± 3.1 µM

Molecule	Chemical Stability Shelf-Life [1]	IC50 [2]	Papp at 4 h, 100 µM (GI-PAMPA permeability)	GI-PAMPA MR (membrane retention) (GI-PAMPA permeability)	CLint scaled at 25 µM [4]	Papp at 4 h, 100 µM (BBB-PAMPA permeability)	BBB-PAMPA MR (membrane retention) (BBB-PAMPA permeability; PBS pH 6.5→pH 7.4, 37 °C, 4 h)	solubility kinetic at 2 h [5]	IC50 [6]	half-life at 25 µM [4]	GI-PAMPA Pe (GI-PAMPA permeability)	other results
COc1cc(/C=C/C(O)=C/C(=O)/C=C/c2ccc(O)cc2)ccc1O [DMC, demethoxycurcumin, reference compound]	22.1 ± 0.2 min	0.49 ± 0.03 µM	1.06 ± 0.06 ×10⁻⁶ cm/s	85.6 ± 0.5%	8.3 mL/min/kg	–	98.3 ± 0.1%	5.7 ± 0.9 µM (≈ 1.93 µg/mL)	16.8 ± 0.7 µM	0.63 ± 0.015 h	–	–
Curcumin [reference compound]	29.7 ± 0.6 min	0.32 ± 0.1 µM	–	90.6 ± 0.3%	–	–	96.7 ± 0.4%	–	11.8 ± 0.1 µM	–	5.0 ± 0.4 ·10^−7 cm/s	Met.stab. in HLM t1/2 [4]: 1.18 ± 0.085 h; Met.stab. in HLM Cl'int [4]: 4.5 ± 0.3 mL/min/kg; Major metabolite identified in the microsomal system (LC-MS) ([4]; semi-qualitative, by m/z change and retention time, Table S1): 6HC as a major metabolite; Safe human consumption amount [7]: up to 12 g/day; Kinetic Solubility [5]: 3.1 ± 0.1 µM
tetrahydrocurcumin [4HC]	–	0.43 ± 0.04 µM	–	–	–	–	–	–	9.8 ± 0.2 µM	–	–	BBB-PAMPA MR (membrane retention): 34.4 ± 0.6 %; BBB-PAMPA Pe (4 h, 100 µM): 31.3 ± 1.1 ·10^−7 cm/s; GI-PAMPA Pe ([8]; 4 h, 100 µM): 30.3 ± 1.3 * ·10^−7 cm/s; GI-PAMPA MR (membrane retention) [8]: 13.3 ± 0.4 %; Met.stab. in HLM t1/2 ([9]; human): 4.34 ± 0.01 min; Met.stab. in HLM Cl'int [9]: 71.8 ± 0.1 mL/min/kg; Kinetic Solubility [10]: 70.3 ± 0.2 µM
